# Experimental data: patent US12551472B2, “Compositions and methods using trigonelline to produce intracellular nicotinamide adenine dinucleotide (NAD+) for treating or preventing physiological disorders or states” (SOCIETE DES PRODUITS NESTLE S.A., priority 2019, dated 2026)
# Legend:
# [1] = system: Human Skeletal Muscle Myotubes (HSMM); settings: 500 μM, 6 h, relative to control, LC-MS (FIG. 2A)
# Experimental: Human primary myoblasts from two different donors were seeded in 6 well plates at a density of 200′000 cells per well in skeletal muscle growth medium (SKM-M, AMSbio). After one day, the differentiation was induced by a medium change for 4 days using differentiation culture medium (Gibco No. 31330-028). Cells were treated with isotopically labelled trigonelline (^13C carbonyl; 3^2H on methyl) for 6 h.
# Cell extracts were separated on a Vanquish UHPLC+focused LC system (Thermo Scientific) with a hydrophilic liquid chromatography (HILIC) iHILIC-Fusion(P) column (Hilicon) carrying the dimensions 150×2.1 mm, 5 μm and a guard column (iHILIC-fusion(P), Hilicon) in front. The separation of metabolites was achieved by applying a linear solvent gradient in normal phase at 0.25 mL/min flow rate and 35° C. of temperature.
# The eluting metabolites were analyzed with an Orbitrap Fusion Lumos mass spectrometer (Thermo Scientific) with a heated electrospray ionization (H-ESI) source in positive and negative mode at a resolution of 60,000 at m/z of 200. Instrument control and data analysis were conducted using Xcalibur (Thermo Scientific).
# [2] = system: RW1596 (myo-3p::GFP) worms; settings: 1 mM trigonelline chloride, 11 day old worms vs age matched control
# Experimental: RW1596 (myo-3p::GFP) worms were collected at Day 1 (young adults) and at Day 11 (aged animals) for muscle integrity assessment. Worms were immobilized with tetramisole and analyzed by confocal microscopy, to assess the muscle fibers morphology shown by GFP fluorescence imaging. Trigonelline treatment with 1 mM trigonelline chloride and experimental measurements were started at Day 1 of wild type N2 worm adulthood, in a regimen of chronic exposure till experiments termination.
# [3] = system: C. elegans; settings: 1 mM trigonelline chloride, day 8 old worms, vs control (FIG. 8)
# Experimental: Absolute quantification of the mtDNA copy number in wild type N2 worms was performed by real-time PCR. Relative values for nduo-1, and act-1 were compared within each sample to generate a ratio representing the relative level of mitochondrial DNA per nuclear genome. The average of at least two technical repeats was used for each biological data point. Each experiment was performed on at least ten independent biological samples (individual worms). Trigonelline treatment with 1 mM trigonelline chloride and experimental measurements were started at Day 1 of wild type N2 worm adulthood, in a regimen of chronic exposure till experiments termination.
# [4] = system: Human Skeletal Muscle Myotubes (HSMM); test: Colorimetric NAD+ quantification in differentiated human primary myoblasts; type: cell-based; settings: 16 h, different doses (FIG. 4)
# Experimental: After one day, the differentiation is induced by a medium change for 4 days. Cells were treated with synthetic trigonelline monohydrate (FIG. 4A) or with Fenugreek seed extract enriched in trigonelline containing 40.45% trigonelline (FIG. 4B) for 16 h at difference doses. NAD^+ was measured using colorimetric NAD^+ quantification assay (Biovision NAD^+/NADH Quantitation Colorimetric Kit #k337-100).
# [5] = system: C57BL/6JRj male mice; test: Enzymatic NAD+ measurement in mouse liver after oral gavage; type: in vivo; settings: equimolar of 300 mg/kg trigonelline, 120 minutes (FIG. 5)
# Experimental: 10 weeks C57BL/6JRj male mice received trigonelline (sigma #T5509) or fenugreek seed extract enriched in trigonelline (40.45% trigonelline) by oral gavage (equimolar of 300 mg/kg trigonelline, n=8/group). After 120 minutes treatment, the liver was harvested and flash frozen in liquid nitrogen. NAD^+ was measured in liver using an enzymatic method adapted from Dall, M., et al., Mol Cell Endocrinol, 2018. 473: p. 245-256.
# [6] = system: C. elegans; settings: 1 mM, chronic exposure from Day 1 adulthood, wild type N2 (FIG. 7A)
# Experimental: Worm lifespan tests were performed using about 100 animals per condition and scored manually every other day. Trigonelline treatment and experimental measurements were started at Day 1 of wild type N2 worm adulthood, in a regimen of chronic exposure till experiments termination.
# [7] = system: C. elegans
# Experimental: C. elegans mobility test was performed using the Movement Tracker software (Mouchiroud, L. et al. Curr Protoc Neurosci 77, 8.37.1-8.37.21 (2016)). The experiments were repeated at least twice. Trigonelline treatment and experimental measurements were started at Day 1 of wild type N2 worm adulthood, in a regimen of chronic exposure till experiments termination.
# [8] = system: C. elegans; settings: 1 mM, day 8 and day 11 old worms, vs control (FIG. 7D)
# From the text: 45 to 60 worms per condition were manually scored for mobility after poking. Worms that were unable to respond to any repeated stimulation were scored as dead. […] Trigonelline treatment and experimental measurements were started at Day 1 of wild type N2 worm adulthood, in a regimen of chronic exposure til experiments termination.
compound,measurement,setting,value
"C[n+]1cccc(C(=O)[O-])c1 [trigonelline, 1-methylpyridin-1-ium-3-carboxylate]",NAD+ levels,[1],enhancement
same,Myofibrillar structure (GFP-tagged myosin),[2],improved more organized myofibrillar structure
same,"Mitochondrial expression relative to nuclear expression (nduo-1/act-1, mt/nDNA)",[3],higher
C[n+]1cccc(C(=O)O)c1.[OH-] [chemically synthesized trigonelline],NAD+ content compared to the control,[4],significant increase
same,NAD+ content in the liver compared to the control,[5],significant increase
C[n+]1cccc(C(=O)O)c1 [trigonelline chloride],Increase in lifespan,[6],21%
same,Distance travelled in advanced aging phase compared to control,[7]; 1 mM (FIG. 7C),significantly increased
same,Mean speed compared to the control,"[7]; 1 mM, from day 1 adulthood (FIG. 7B)",increased
same,Stimulated mobility score (worms responsive to a physical stimulus),[8],more responsive
